Test results published in patent US10201510B2, “Compositions and methods for treatment of neurological symptoms associated with alcohol-withdrawal and for convulsive seizure” (Oregon Health & Science University, priority 2005, dated 2019).

Experiments:
L-type Ca^2+ channel = target: T1, L-type Ca^2+ channel (Mus musculus, UniProt Q01815); assay: Reversibility of inhibition of L-type Ca^2+ channel mediated arterial contraction after wash-out
T1 construct: KCl-induced contraction in isolated arteries; from tissue; host or cells: mouse mesenteric arteries
Protocol: (§1) Contractions obtained after 30 min. incubation with the test compounds (left portion of graph), and after a 60-min. wash-out (right portion of graph).
Moreover, farnesylamine is likely to be metabolized through pathways different from those involved in farnesol clearance.

[1] = target: T2, smooth muscle voltage-gated, L-type (Cav1.2 or α1C subunit) Ca^2+ channels (Mus musculus, UniProt Q01815); assay: KCl-induced contraction in isolated arteries; settings: FIG. 5 / FIG. 6 (25 μM)
T2 construct: KCl-induced contraction in isolated arteries; from tissue; host or cells: mouse mesenteric arteries
Protocol: as §1
(§2) To identify compounds with enhanced L-type Ca^2+ channel blocker activity, several compounds were either purchased or synthesized, and then tested for their ability to inhibit: (1) KCl-induced contraction in isolated arteries; (2) KCl-induced Ca^2+ signaling in fura-2 loaded arteries; and (3) KCl-induced Ca^2+ signaling in fura-2 loaded PC12 cells, all using art-recognized methods established in the applicants' laboratories (Roullet, 1993, 1994, 1995, 1997; De Lima, 1999). Arteries express smooth muscle voltage-gated, L-type (Cav1.2 or α1C subunit) Ca^2+ channels, whereas PC12 cells constitutively express the neuronal voltage-gated, L-type (Cav1.3) α1D subunit (Ertel, 2000).

[2] = target: T3, neuronal voltage-gated, L-type (Cav1.3) α1D subunit Ca^2+ channel (Rattus norvegicus, UniProt P27732); assay: KCl-induced Ca^2+ signaling in fura-2 loaded PC12 cells; type: cell-based; settings: non-NGF PC12 cells, fura-2; FIG. 1 / FIG. 3
T3 construct: KCl-induced intracellular Ca^2+ signaling in non-NGF treated PC12 cells loaded with fura-2; endogenous in cells; host or cells: PC12 cells (non-NGF treated)
Text: According to particular aspects of the present invention, the alcohol group is essential for activity. Additionally, the activity of farnesol metabolites on neuronal voltage-gated L-type Ca^2+ channels was investigated. […] The Ca^2+ channel activity is expressed as % inhibition of KCl-induced intracellular Ca^2+ signaling in non-NGF differentiated PC12 cells loaded with fura-2 (see Materials and Methods under Example 2). The assayed molecules are: FPP—farnesyl pyrophosphate; FOH—all-trans farnesol; FCHO—all-trans farnesal; and FCOOH—all-trans farnesoic acid (prepared by Dr. McDougal).
as §2
Ca^2+ channel activity is expressed as % inhibition of KCl-induced intracellular Ca^2+ signaling in non-NGF treated PC12 cells loaded with fura-2.

ADH = assay: Metabolism / substrate recognition by ADH; type: in vitro ADME
microsomal FolDH = assay: Recognition by microsomal FolDH; type: in vitro ADME
[3] = test system: withdrawal seizures in alcohol-dependent mice; assay: Predicted anti-seizure activity; type: in vivo, mouse; set-up: key: la = long-acting; The ++ farnesol activity was arbitrary; settings: duration flag in brackets
Storage stability = type: physicochemical; settings: −20° C., pure form or ethanol solutions (typically 25 mM)
Protocol: According to the present invention, the synthesis of geranylresorcinol (GR) (4) is based on the condensation of geranyl bromide (1) and 3-hydroxyphenyl benzoate (2), followed by alkaline cleavage of the formed ester (3). The method generates pure GR with an overall yield of 40%. The compound is stable when stored at −20° C. either in its pure form or in ethanol solutions (typically prepared at 25 mM). Long-term storage may be associated with some darkening of the product, as typically observed with electron-rich phenols, but it is not associated with significant loss of activity (on arteries).

T1 sequence (Q01815 whole entry): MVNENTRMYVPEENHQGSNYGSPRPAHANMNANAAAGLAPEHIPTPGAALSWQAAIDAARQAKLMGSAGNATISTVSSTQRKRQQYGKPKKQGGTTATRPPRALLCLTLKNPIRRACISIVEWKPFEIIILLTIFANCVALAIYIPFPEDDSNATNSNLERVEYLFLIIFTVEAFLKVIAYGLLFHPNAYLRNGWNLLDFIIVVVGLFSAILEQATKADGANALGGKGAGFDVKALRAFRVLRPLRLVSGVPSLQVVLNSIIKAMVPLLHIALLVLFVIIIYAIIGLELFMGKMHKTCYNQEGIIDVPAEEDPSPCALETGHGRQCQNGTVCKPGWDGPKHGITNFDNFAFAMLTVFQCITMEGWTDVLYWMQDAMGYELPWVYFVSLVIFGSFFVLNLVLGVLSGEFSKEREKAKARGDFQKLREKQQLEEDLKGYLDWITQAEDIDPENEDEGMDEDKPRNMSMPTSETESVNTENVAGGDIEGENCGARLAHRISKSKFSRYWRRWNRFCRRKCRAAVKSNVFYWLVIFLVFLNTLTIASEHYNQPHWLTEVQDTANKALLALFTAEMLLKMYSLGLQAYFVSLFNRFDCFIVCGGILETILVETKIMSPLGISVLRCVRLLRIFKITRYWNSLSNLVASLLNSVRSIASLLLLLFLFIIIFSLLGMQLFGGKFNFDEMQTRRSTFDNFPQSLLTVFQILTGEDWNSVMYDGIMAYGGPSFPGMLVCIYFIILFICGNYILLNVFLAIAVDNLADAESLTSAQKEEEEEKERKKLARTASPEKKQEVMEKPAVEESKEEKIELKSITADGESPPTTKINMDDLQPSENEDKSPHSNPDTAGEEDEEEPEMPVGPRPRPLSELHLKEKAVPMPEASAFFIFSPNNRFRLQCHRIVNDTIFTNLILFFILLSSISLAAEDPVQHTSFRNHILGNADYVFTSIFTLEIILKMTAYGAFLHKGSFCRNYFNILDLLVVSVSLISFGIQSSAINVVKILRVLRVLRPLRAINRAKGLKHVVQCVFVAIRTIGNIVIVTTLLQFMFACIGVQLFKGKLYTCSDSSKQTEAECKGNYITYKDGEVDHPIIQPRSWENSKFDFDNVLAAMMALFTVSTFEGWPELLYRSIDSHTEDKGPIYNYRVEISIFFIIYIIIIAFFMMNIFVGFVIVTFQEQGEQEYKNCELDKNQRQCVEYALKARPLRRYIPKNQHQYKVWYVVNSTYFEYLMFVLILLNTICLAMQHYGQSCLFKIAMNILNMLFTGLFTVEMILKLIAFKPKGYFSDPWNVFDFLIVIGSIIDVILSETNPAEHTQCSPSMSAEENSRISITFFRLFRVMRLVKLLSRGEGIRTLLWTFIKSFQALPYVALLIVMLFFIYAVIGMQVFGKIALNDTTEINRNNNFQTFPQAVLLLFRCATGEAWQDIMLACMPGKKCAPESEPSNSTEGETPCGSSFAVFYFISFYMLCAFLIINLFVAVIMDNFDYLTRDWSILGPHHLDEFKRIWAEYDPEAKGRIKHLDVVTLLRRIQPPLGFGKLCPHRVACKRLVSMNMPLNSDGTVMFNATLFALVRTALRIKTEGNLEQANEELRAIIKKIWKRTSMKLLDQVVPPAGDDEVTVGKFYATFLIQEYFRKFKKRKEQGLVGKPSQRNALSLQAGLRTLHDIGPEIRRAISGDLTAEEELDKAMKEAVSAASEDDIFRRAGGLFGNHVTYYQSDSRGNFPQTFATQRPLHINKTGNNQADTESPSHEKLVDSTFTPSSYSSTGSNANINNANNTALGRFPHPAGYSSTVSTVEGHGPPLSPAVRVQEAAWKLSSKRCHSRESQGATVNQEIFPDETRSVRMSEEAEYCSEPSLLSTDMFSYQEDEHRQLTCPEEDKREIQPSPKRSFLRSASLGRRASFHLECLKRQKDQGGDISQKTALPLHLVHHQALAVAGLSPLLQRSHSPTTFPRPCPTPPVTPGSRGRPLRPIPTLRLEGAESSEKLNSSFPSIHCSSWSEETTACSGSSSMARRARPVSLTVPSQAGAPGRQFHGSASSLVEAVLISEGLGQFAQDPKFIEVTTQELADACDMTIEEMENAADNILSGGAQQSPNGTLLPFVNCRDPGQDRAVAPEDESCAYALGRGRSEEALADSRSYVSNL
T1 sequence (P54285 whole entry partner): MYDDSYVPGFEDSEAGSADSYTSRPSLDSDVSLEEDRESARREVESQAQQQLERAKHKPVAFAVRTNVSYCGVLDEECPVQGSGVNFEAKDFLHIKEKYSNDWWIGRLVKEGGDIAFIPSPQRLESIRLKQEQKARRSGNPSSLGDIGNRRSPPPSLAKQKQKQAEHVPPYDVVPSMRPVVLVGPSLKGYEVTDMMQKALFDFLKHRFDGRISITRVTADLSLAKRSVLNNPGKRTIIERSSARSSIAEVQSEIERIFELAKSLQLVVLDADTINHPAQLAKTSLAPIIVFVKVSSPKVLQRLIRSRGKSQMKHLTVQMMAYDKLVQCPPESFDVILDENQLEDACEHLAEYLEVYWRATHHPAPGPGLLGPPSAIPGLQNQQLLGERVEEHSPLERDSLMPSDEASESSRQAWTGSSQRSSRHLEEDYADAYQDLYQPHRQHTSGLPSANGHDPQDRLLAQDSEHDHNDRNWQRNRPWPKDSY
T1 sequence (O08532 25-956 partner limits assumed): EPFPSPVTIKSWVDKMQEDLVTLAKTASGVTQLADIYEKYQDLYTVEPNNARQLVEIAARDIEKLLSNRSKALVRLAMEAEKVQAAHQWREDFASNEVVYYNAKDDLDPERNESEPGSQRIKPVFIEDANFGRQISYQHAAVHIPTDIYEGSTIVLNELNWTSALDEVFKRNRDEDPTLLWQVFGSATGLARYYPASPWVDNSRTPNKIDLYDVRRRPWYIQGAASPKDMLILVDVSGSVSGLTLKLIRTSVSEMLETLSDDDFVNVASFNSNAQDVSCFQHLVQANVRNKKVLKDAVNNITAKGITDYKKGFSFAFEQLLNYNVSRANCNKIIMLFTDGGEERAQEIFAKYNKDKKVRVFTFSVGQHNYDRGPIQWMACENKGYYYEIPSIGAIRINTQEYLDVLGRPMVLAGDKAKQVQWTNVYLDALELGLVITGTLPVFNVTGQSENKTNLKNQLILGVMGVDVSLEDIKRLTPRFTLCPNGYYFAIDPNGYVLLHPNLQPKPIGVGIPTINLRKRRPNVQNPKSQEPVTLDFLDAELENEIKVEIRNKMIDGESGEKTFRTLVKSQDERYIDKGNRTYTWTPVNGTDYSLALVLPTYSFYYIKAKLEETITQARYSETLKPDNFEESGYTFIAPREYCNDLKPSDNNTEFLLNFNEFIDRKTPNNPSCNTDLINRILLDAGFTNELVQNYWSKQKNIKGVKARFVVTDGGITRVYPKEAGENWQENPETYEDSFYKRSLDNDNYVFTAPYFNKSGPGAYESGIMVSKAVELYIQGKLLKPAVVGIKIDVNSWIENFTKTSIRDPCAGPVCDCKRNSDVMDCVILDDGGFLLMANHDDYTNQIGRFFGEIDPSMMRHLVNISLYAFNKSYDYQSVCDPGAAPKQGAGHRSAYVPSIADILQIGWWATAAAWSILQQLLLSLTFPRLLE
T1 sequence (O08532 957-1103 partner limits assumed): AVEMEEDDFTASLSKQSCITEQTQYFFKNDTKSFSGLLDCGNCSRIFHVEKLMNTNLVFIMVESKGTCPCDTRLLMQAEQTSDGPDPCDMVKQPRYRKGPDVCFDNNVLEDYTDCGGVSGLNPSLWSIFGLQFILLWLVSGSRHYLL
T2 sequence (Q01815 whole entry): as the sequence (Q01815 whole entry) above
T2 sequence (P54285 whole entry partner): as the sequence (P54285 whole entry partner) above
T2 sequence (O08532 25-956 partner limits assumed): as the sequence (O08532 25-956 partner limits assumed) above
T2 sequence (O08532 957-1103 partner limits assumed): as the sequence (O08532 957-1103 partner limits assumed) above

## CC(C)=CCC/C(C)=C/COc1cccc(O)c1 [Geranylresorcinol, (E)-3-(3,7-dimethylocta-2,6-dienyloxy)phenol]
L-type Ca^2+ channel
  reversibility of effect compared with farnesol: less reversible
[1]
  activity on KCl-induced arterial contraction: strongly inhibits
[2]
  activity on neuronal L-type Ca^2+ channels compared with all-trans farnesol: strongly inhibits
ADH
  substrate for ADH: very poor substrate for ADH
Microsomal FolDH
  recognition by microsomal FolDH: not recognized by microsomal FolDH
[3]
  Predicted anti-seizure activity: long-acting (la): la
Storage stability
  storage stability: stable
